Laboratory results from patent US7795386B2, “Peptides comprising an isoDGR motif” (Molmed SpA, priority 2004, dated 2010).
Like-named read-outs stand apart in the source and are kept apart here. Values belong to the compound of their own block, whether it stands above or below them. *1 amine or outer side, *2 acyl side, *3 side chain or, on linkers, in order; H or OH if unused. Where a SMILES comes first, the peptide text is derived from it. Bridges are numbered along the chain shown (N, C = ends). [ ]: non-standard residue; d: D form. βAsp = O=C(O)[C@H](CC(=O)[*:2])N[*:1]

How the values were obtained:
αvβ3 = target: T1, αvβ3 (Homo sapiens, UniProt P05106+P06756); test: IC50 (μM)
T1 construct: purchased Immunological Sciences
Excerpt: Table printed on a drawing sheet, Figure 7
Head of the field: IC50 (μM)
The patent's description of the figure: FIG. 7 Competitive binding of NGR-TNF to αvβ3 with NGR-pep and its deamidated products to αvβ3.
First copying reader's note: Legend table of panel A (inhibition of bio-NGR-TNF binding to αvβ3): the first three body rows belong to the upper plot and the last five to the lower plot, which prints no head of its own; the plot marker symbols are left out.
Where the first naming reader finds the target: description_of_the_figure: FIG. 7 Competitive binding of NGR-TNF to αvβ3 with NGR-pep and its deamidated products to αvβ3.

αvβ3 integrin = target: T2, αvβ3 integrin (Homo sapiens, UniProt P05106+P06756); test: competitive binding of biotinylated FN-I5/streptavidin-peroxidase complexes to αvβ3-coated plates; conditions: in words, FIG. 6C
T2 construct: purchased Immunological Sciences
Protocol: (C) Competitive binding of biotinylated FN-I5/streptavidin-peroxidase complexes to αvβ3-coated plates with various amounts of FN-I4-5 or FN-I4-5SGS (upper panel or peptides corresponding to the NGR loop (residues 258-271) of FN-I5 before and after heat treatment (lower panel).
Binding of biotinylated peptides (CNGRC (SEQ ID NO: 6)-TNF1-11, CARAC (SEQ ID NO: 36)-TNF1-11 and FN-I5) to purified integrins was studied using streptavidin-peroxidase conjugate complexes. Complexes were prepared by mixing various quantities (0.5-1 μg) of heat-treated biotinylated peptides in DPBS containing 3% BSA with 0.03 units of streptavidinperoxidase (binding capacity: 1 μg of biotin/unit of streptavidin-peroxidase) (final volume 15 μl). Complexes were diluted in 3% BSA-DPBS (1:500), added to microtiterplates coated with integrins as described above, and incubated for 2 h at room temperature. After washing with DPBS, bound peroxidase was detected by chromogenic reaction as described above. Each assay was carried out in triplicate.
The binding of heat-treated FN-I5, CNGRC (SEQ ID NO: 6)-TNF and short peptides to purified αvβ3, αvβ5, α5β1 and α1β1 integrins was then investigated by direct and competitive ELISA with integrins adsorbed on microtiterplates.

[1] = stability / deamidation kinetics of peptides by RP-HPLC; format: physicochemical; conditions: for stability under integrin binding assay conditions: assay conditions of competitive binding
Protocol: RP-HPLC analysis of NGR-pep and its synthetic deamidation products (DGR-pep and isoDGR-pep) before and after incubation for 4 h at 37° C. in 0.1 M ammonium bicarbonate buffer, pH 8.5 (A and B) and in DMEM, pH 7.3 (A, inset). RP-HPLC was performed on a C-18 column (PepMap C18, PerSeptive Biosystem) as follows: buffer A, 0.1% trifluoroacetic acid (TFA) in water; buffer B, 95% acetonitrile, 0.1% TFA; 0% B for 10 min, linear gradient 20-40% B in 30 min, 100% B for 10 min; 0% B for 15 min (flow rate, 0.5 ml/min). Peak 1, 2 and 3 were identified by spiking the NGR-pep, after 2 h of incubation, with equal amount of the indicated peptide (C). NGR-pep (peak 1) rapidly converts to compounds corresponding to DGR-pep (peak 2) and isoDGR-pep (peak 3) (half-life, 2-4 h).
The stability of NGR and the kinetics of LisoDGR or DDGR formation at pH 7.3 (DMEM) and pH 8.5 (ammonium bicarbonate), were then investigated. To this aim the CNGRCGVRY (SEQ ID NO: 42) peptide (called NGR-pep) was synthesized and analyzed by reverse-phase HPLC, before and after incubation at 37° C. Residues GVRY (SEQ ID NO: 72) were added to the C-terminus of CNGRC (SEQ ID NO: 6) to enable column adsorption. In addition five peptides called, DGR-pep, D-DGR-pep, isoDGR-pep, D-isoDGR and SGR-pep, corresponding to the same sequence of NGR-pep except for the presence of D, D-D, L-isoD, D-isoD and S, respectively in place of N were prepared. The half-life of NGR-pep at pH 7.3 and 8.5, estimated from the height of the main chromatographic peak (peak 1), was about 4 and 2 h, respectively (FIG. 5A, inset). Peptides corresponding to deamidation products were stable under these conditions (FIG. 5B).
To identify peaks and to verify that the measured half-life correspond to Asn deamidation, and not to other structural changes, we analyzed heat-treated NGR-pep peptide spiked with fresh NGR-pep, or DGR-pep or isoDGR-pep peptides.

EA.hy926 cells = test: EA.hy926 cell adhesion assay on coated microtiter plates; format: cell-based, human; conditions: for EA.hy926 cell adhesion to coated product after heat-treatment: 0.1 M ammonium bicarbonate buffer, pH 8.5, 16 h at 37° C.; for EA.hy926 cell adhesion to coated product: before heat treatment
Protocol: Adhesion of EA.hy926 cells to microtiter plates coated with various peptides and proteins before and after accelerated aging. Accelerated aging was performed by peptide incubation in 0.1 M ammonium bicarbonate buffer, pH 8.5, for 16 h at 37° C. (“heat-treatment”). Adhesion to: recombinant FN-I4-5 or control protein (FN-I4-5 (SGS)) (A), synthetic FN-I5 (B), recombinant CNGRC-TNF, CNGRC-TNF1-11 and control CARAC-TNF1-11 peptide (C), CDGRC-TNF (D). Heat-treated (37° C.) and untreated (−20° C.) products were adsorbed onto the plastic surface of microtiter wells (overnight at 4° C.). Microphotograph of wells coated with 30 μg/ml of heat-treated FN-I5 or BSA (B, right) or with 10 μg/ml of recombinant CNGRC-TNF or CDGRC-TNF (C, right), ×200. Cell adhesion assay was carried out as described in Materials and Methods. The TNF fusion constructs, including the TNF1-11 fusion constructs, were made as described Materials and Methods, and include a “G” linker.
Untreated and “heat treated” fibronectin fragments, peptides and peptide-TNF conjugates were diluted at the desired concentration with 150 mM sodium chloride, 50 mM sodium phosphate, pH 7.3, and added to 96-well polyvinyl chloride microtiter plates (Falcon, Becton Dickinson). After overnight incubation at 4° C., the plates were washed, seeded with EA.hy926 cell in DMEM containing 0.1% BSA (40000 cells/well) and left to incubate for 2-3 h at 37° C., 5% CO2. Adherent cells were fixed and stained with crystal violet as described (Curnis et al., 2005).

L-M mouse fibroblasts = test: standard cytolytic assay with L-M mouse fibroblasts; format: cell-based; conditions: in vitro, L-M murine fibroblasts
Excerpt: Protein purity and identity were checked by SDS-PAGE, electrospray mass spectrometry and gel-filtration chromatography.
The cDNA coding for DGR-TNF (mouse TNF fused with the C-terminus of CDGRCG (SEQ ID NO: 24)) was obtained by PCR on NGR-TNF plasmid, using the following primers: 5′ […] 3′ (SEQ ID NO: 43) (5′ primer); 5′ […] ′3 (SEQ ID NO: 44) (3′ primer). Both primers were designed to allow the directional cloning into a pET101/D-TOPO plasmid expression kit (Invitrogen). The underlined sequence in 5′ primer contains the sequence necessary to enable the directional cloning and the initial translation codon whereas the 3′ primer contains the stop codon (underlined). The PCR reaction and the cloning procedure were performed as recommended by the manufacturer's instruction. […] The column was washed extensively 100 mM Tris-HCl buffer containing pH 8.0, loaded with DGR-TNF crude extract, diluted in 20 mM Tris-HCl buffer conatining 2 mM EDTA pH 8.0, and desorbed by elution with 7 M urea, 100 mM Tris-HCl, pH 8.0. DGR-TNF was then refolded as described (1). Briefly, the denatured products were dialyzed against 2.33 M urea, 100 mM Tris-HCl, pH 8.0 at 4° C. (140 min), followed by 1.55 M urea, 100 mM Tris-HCl, pH 8.0 (140 min), and 1 M urea, 100 mM Tris-HCl, pH 8 (140 min). Finally the products were dialyzed against 100 mM Tris-HCl, pH 8.0 (48 h). The products were centrifuged at 13000×g (10 min, 4° C.) and concentrated by ultra-filtration through a 10 KDa cut-off filter. All solutions used in the purification and refolding steps were prepared with sterile and endotoxin-free water (S.A.L.F. Laboratorio Farmacologico SpA, Bergamo, Italy). Protein concentration was measured using the BCA Protein Assay Reagent (Pierce, Rockford, Ill.). Protein purity and identity were checked by SDS-PAGE, electrospray mass spectrometry (ESI-MS) and analytical gel-filtration chromatography.

T2 sequence (P06756 31-889 limits assumed): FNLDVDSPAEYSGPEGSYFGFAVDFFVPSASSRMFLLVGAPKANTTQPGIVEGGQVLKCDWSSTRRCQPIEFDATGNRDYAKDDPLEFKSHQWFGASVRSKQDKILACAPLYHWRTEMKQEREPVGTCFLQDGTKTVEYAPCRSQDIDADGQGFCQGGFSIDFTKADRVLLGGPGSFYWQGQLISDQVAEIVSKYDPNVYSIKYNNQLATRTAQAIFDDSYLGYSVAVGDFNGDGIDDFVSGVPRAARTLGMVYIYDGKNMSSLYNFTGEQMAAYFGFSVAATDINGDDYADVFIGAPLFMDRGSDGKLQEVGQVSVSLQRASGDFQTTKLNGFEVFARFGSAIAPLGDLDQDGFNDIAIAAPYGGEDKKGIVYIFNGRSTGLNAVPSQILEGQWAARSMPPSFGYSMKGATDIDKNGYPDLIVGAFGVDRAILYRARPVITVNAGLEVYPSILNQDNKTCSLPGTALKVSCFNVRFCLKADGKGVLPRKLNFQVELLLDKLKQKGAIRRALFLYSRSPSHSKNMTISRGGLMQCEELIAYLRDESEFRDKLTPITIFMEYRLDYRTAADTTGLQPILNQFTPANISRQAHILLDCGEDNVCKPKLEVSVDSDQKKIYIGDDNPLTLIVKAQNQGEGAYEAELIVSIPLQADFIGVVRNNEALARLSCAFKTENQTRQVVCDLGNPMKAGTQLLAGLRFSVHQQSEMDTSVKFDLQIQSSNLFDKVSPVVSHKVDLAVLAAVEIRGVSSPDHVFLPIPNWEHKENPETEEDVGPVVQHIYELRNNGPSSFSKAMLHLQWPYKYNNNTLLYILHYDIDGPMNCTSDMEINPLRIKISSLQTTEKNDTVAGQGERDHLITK
T2 sequence (P06756 891-1048 partner limits assumed): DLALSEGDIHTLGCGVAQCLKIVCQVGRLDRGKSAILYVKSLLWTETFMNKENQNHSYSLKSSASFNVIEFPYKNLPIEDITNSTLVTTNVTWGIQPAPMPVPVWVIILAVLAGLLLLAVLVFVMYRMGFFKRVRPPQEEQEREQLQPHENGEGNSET
T2 sequence (P05106 27-788): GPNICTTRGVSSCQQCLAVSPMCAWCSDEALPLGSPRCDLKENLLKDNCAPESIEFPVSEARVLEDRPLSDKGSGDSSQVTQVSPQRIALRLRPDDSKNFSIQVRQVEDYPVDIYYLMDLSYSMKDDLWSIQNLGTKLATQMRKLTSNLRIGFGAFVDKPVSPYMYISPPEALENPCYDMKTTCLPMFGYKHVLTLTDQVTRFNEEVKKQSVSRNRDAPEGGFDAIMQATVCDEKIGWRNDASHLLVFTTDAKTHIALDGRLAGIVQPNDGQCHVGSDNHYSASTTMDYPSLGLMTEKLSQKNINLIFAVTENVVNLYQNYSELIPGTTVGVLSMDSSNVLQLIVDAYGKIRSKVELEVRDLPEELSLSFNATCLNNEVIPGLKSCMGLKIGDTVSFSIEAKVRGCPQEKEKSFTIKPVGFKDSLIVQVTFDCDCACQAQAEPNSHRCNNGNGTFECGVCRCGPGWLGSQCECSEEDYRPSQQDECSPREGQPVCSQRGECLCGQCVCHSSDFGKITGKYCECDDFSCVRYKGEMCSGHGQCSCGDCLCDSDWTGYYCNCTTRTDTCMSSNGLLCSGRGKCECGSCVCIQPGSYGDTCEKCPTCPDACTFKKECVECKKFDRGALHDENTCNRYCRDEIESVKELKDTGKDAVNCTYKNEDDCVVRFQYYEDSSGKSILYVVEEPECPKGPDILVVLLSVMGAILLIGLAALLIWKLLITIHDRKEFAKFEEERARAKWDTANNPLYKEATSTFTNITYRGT
T1 sequence (P05106 27-788 limits assumed): as the sequence (P05106 27-788) above
T1 sequence (P06756 31-889 limits assumed): as the sequence (P06756 31-889 limits assumed) above
T1 sequence (P06756 891-1048 limits assumed): as the sequence (P06756 891-1048 partner limits assumed) above

Compound: Loop-GNGRG: peptide corresponding to the NGR loop of FN-I5 (LQCISTGNGRGEWKCE)
competition of the binding of FN-I5 to αvβ3 (αvβ3 integrin): Binding competition was observed

Compound: CC(C)[C@H](NC(=O)CNC(=O)[C@@H]1CSSC[C@H](N)C(=O)N[C@H](C(=O)O)CC(=O)NCC(=O)N[C@@H](CCCNC(=N)N)C(=O)N1)C(=O)N[C@@H](CCCNC(=N)N)C(=O)N[C@@H](Cc1ccc(O)cc1)C(=O)O [isoDGR-pep] (H-C[βAsp]GRCGVRY-OH; disulfide 1-5 (inferred); N-terminus and C-terminus assumed)
stability under integrin binding assay conditions [1]: stable

Compound: Cys-Asp-Gly-Arg-Cys-Gly-(SEQ ID NO: 24)TNF [CDGRC-TNF]
EA.hy926 cell adhesion to coated product after heat-treatment (EA.hy926 cells): completely inactive
EA.hy926 cell adhesion to coated product (EA.hy926 cells): completely inactive
Cytolytic Activity (L-M mouse fibroblasts): 2.59 (±0.69)×10^8 U/mg
Cytolytic Activity (L-M mouse fibroblasts; listed as DGR-TNF): 2.5×10^8 U/mg

Compound: FN-I4-5: recombinant human fibronectin 4-5th type I repeats, residue 184-273, His-tag at the N-terminus
EA.hy926 cell adhesion to coated product after heat-treatment (EA.hy926 cells): increase of cell adhesion
EA.hy926 cell adhesion to coated product (EA.hy926 cells): promoted cell adhesion
competition of the binding of FN-I5 to αvβ3 (αvβ3 integrin): could compete

Compound: CC(C)[C@H](NC(=O)CNC(=O)[C@@H]1CSSC[C@H](N)C(=O)N[C@H](CC(=O)O)C(=O)NCC(=O)N[C@@H](CCCNC(=N)N)C(=O)N1)C(=O)N[C@@H](CCCNC(=N)N)C(=O)N[C@@H](Cc1ccc(O)cc1)C(=O)O [DDGR-pep] (H-C[dD]GRCGVRY-OH; disulfide 1-5 (inferred); N-terminus and C-terminus assumed)
stability under integrin binding assay conditions [1]: stable

Next, values leading:

IC50 (αvβ3): 60 µM
Compound: CC(C)[C@H](NC(=O)CNC(=O)[C@@H]1CSSC[C@H](N)C(=O)N[C@@H](CC(=O)O)C(=O)NCC(=O)N[C@@H](CCCNC(=N)N)C(=O)N1)C(=O)N[C@@H](CCCNC(=N)N)C(=O)N[C@@H](Cc1ccc(O)cc1)C(=O)O [DGR-pep] (H-CDGRCGVRY-OH; disulfide 1-5; N-terminus and C-terminus assumed)

competition of the binding of FN-I5 to αvβ3 (αvβ3 integrin): not
Compound: Loop-RGGNG: control loop peptide of FN-I5 with scrambled sequence at the GNGRG site (LQCISTRGGNGEWKCE) [reference compound]

IC50 (αvβ3): 25 µM
stability when stored in water ([1]; 37° C., water): stable for more than one week
half-life ([1]; ammonium bicarbonate buffer and DMEM, 37° C., pH 8.5 ammonium bicarbonate and DMEM pH 7.3 (FIG. 5 legend), read-out: half-life of conversion to DGR-pep and isoDGR-pep): 2 to 4 h
half-life ([1]; ammonium bicarbonate buffer, pH 8.5 (0.1 M ammonium bicarbonate), 37° C., read-out: half-life (height of main chromatographic peak) (converted)): ~2 h
half-life ([1]; pH 7.3 (DMEM), 37° C., read-out: half-life (height of main chromatographic peak) (converted)): ~4 h
Compound: CC(C)[C@H](NC(=O)CNC(=O)[C@@H]1CSSC[C@H](N)C(=O)N[C@@H](CC(N)=O)C(=O)NCC(=O)N[C@@H](CCCNC(=N)N)C(=O)N1)C(=O)N[C@@H](CCCNC(=N)N)C(=O)N[C@@H](Cc1ccc(O)cc1)C(=O)O [NGR-pep, CNGRCGVRY] (H-CNGRCGVRY-OH; disulfide 1-5; N-terminus and C-terminus assumed)

IC50 (αvβ3): > 1000 µM
Compound: CC(C)[C@H](NC(=O)CNC(=O)[C@@H]1CSSC[C@H](N)C(=O)N[C@@H](CO)C(=O)NCC(=O)N[C@@H](CCCNC(=N)N)C(=O)N1)C(=O)N[C@@H](CCCNC(=N)N)C(=O)N[C@@H](Cc1ccc(O)cc1)C(=O)O [SGR-pep] (H-CSGRCGVRY-OH; disulfide 1-5; N-terminus and C-terminus assumed)
